According to ChEMBL document CHEMBL4418270, “Novel Pyrimidine- And Triazine-Hepcidine Antagonists” (2012):

These molecules were tested against T1, Hepcidin (Homo sapiens) (UniProt P81172) (assay: Inhibition of human hepcidin-stimulated recombinant C-terminal Halo-tagged human FPN internalization in MDCK cells at 10 uM incubated for 15 to 20 mins by Halo-tagged TMR based fluorescence assay relative to control).
T1 sequence (whole entry): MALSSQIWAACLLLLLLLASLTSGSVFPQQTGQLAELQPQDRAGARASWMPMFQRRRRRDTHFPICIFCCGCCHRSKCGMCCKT
Assay type: cell-based
`Cc1nc(N/N=C/c2ccc(O)cc2O)cc(N2CCOCC2)n1` was tested, and the inhibition was over 50%.
`c1ccc(N(c2ccccc2)c2nc(N3CCOCC3)nc(-n3ccnc3)n2)cc1` showed an inhibition of over 50%.
For `Cc1nc(-c2ccccn2)nc(NCCNc2cc(C(F)(F)F)ccn2)c1Cl`, the inhibition was under 50%.
For `COc1cnc(-c2ccccn2)nc1NC(C)C`, the inhibition was over 50%.
For `Cc1ccc2cc(Nc3nc(N4CCOCC4)nc(N4CCOCC4)n3)ccc2n1`, the inhibition was under 50%.
In the case of `Oc1ccccc1/C=N/Nc1cc(N2CCOCC2)nc(N2CCOCC2)n1`, the inhibition is reported as over 50%.
With `COc1ccc(O)c(/C=N/Nc2nc(N3CCOCC3)nc(N3CCOCC3)n2)c1` the inhibition was over 50%.
With `C/C(=N\Nc1cc(N2CCOCC2)nc(C)n1)c1ccc(F)cc1` the inhibition was under 50%.
`Cc1nc(-c2ccccn2)nc(NCCNc2ccc(C(F)(F)F)cn2)c1Cl` showed an inhibition of under 50%.
Work on `Oc1cccc(/C=N/Nc2cc(N3CCOCC3)nc(N3CCOCC3)n2)c1` yielded an inhibition of over 50%.
`CN(c1ccccc1)c1nc(N2CCOCC2)nc(-n2ccnc2)n1` showed an inhibition of under 50%.
In the case of `Nc1nc(-c2ccccn2)nc(N)c1Cc1ccccc1F`, the inhibition is reported as under 50%.
